Experiment [1] relates to MroD. The experiment in a line: MroD [4+2] macrocyclization of didehydrated MroA2 variants, MALDI-TOF-MS. The format is biochemical, Micromonospora rosaria. On the set-up: key: +++ indicates enzyme activity roughly equal to wild-type MroA2; ++ indicates modestly reduced enzyme activity; + indicates severely reduced enzyme activity; − indicates no detectable enzyme activity (no macrocycles observed). As to conditions: MroA2 multi-site variants; qualitatively estimated from leader peptide vs remaining didehydrated intermediate. How it is done: After incubation, the enzyme reaction (18 μL) was split into two equal parts. One part was treated with MBP-MroD such that the final concentration of MBP-MroD is 3 μM, and the other part was added the same volume but with buffer lacking MBP-MroD (50 mM HEPES, 300 mM NaCl, 2.5% glycerol, 0.5 mM TCEP). The reaction further proceeded for 1.5 h at room temperature. All reaction mixture was then desalted with solid-phase extraction using Ziptip with 0.6 μL C18 resin (EMD Millipore) and crystallized on an MTP384 steel target plate using either saturated sinapic acid or 50 mg/mL Super DHB [dissolved in 60% acetonitrile and 0.1% trifluoroacetic acid (TFA)] as the matrix. The crystallized spots were then analyzed using MALDI-TOF-MS (Bruker Ultraflex). The external standard for MALDI-TOF-MS analysis is ProteoMass Peptide and Protein MALDI-MS Calibration Kit (Sigma).

Experiment [2] has as its system MroB/C. Description: MroB/C dehydration (Dha formation) of MroA precursor peptide variants, MALDI-TOF-MS / LC-MS/MS. As to conditions: for Dha formation: MroA2 multi-site variants, in vitro translated, MALDI-TOF-MS; for dehydration by MroBC (site and extent): MroBC assays followed by LC-MS/MS analysis, result in words. The format is biochemical, Micromonospora rosaria. The method, then: In a 0.65 mL protein low-binding Eppendorf tube placed on ice. 0.75 μL of purified mroA variant template DNA was mixed with 0.75 μL of Solution B and 1 μL of Solution A of PURExpress In vitro Protein Synthesis Kit (E6800L) purchased from NEB (total volume of reaction is 2.5 μL). The translation reactions were performed at 37° C. for 1 h on an aluminum block.
For a full MroBCD substrate scope investigation, a total translation volume for each variant of 7.5 μL was performed. 1.5 μL of 90 mM iodoacetamide (IAA) was added to quench dithiothreitol (DTT) in the translation reaction mixture, a thiol-based nucleophile that can react with electrophilic dehydroalanines generated from MroBC-catalyzed dehydration assays. The translation product was split into two parts with these corresponding volumes: 3 μL and 6 μL. In the 6 μL part. 10.2 μL of the enzyme mix containing enzymes and cofactors was added along with 1.8 μL 90 mM ATP (pH 7.5), which was used to initiate the reaction. The enzyme mix was made by adding these components in the following order: HEPES pH 7.5, MgCl2, glutamate, T. bispora tRNA^Glu (CUC), thermostable inorganic pyrophosphatase (TIPP), TEV (L56V/S135G/S219V) (w/w ratio with a total amount of MBP-tagged protein=1:10), MBP-MroB, MBP-MroC, and T. bispora GluRS. The enzyme mix was incubated 25 min at room temperature before adding to the translation product to facilitate in situ TEV-catalyzed cleavage of MBP from MBP-MroB and MBP-MroC. The enzymatic reaction proceeded for 1 h at room temperature. Overall, the concentration of components in the 18 μL reaction mix is as follows: 50 mM HEPES pH 7.5, 5 mM MgCl2. L-glutamate 1 mM, 3 μM T. bispora tRNA^Glu, 1 μM T. bispora GluRS, 2 μM MBP-MroB, 2 μM MBP-MroC, […], 0.027 U/μL TIPP, and 5 mM IAA. In addition, the 3 μL part was incubated with the same buffer lacking enzymes and tRNA as a translation control.
The reactions were performed similarly as described above, with 10 μM substrate concentration and without IAA. The total volume of each reaction is 100 μL.
Enzymatic assays were desalted using solid-phase extraction prior to LC-ESI-MS/MS analysis. Specifically, except for the thiazol(in)es-containing pyritide (which utilize 8 mg Pierce C18 Spin Column), the samples were applied to Toptip C18 (10-200 μL, Glygen Corp) wetted with 50 μL of 80% acetonitrile (0.1% formic acid) and equilibrate with 150 μL of 0.1% formic acid following the manufacturer instructions. The C18 columns (tips) are then washed with 150 μL of 0.1% formic acid and eluted using 100 μL 80% acetonitrile (0.1% formic acid). The samples were then dried utilizing lyophilization and redissolved in 25% acetonitrile (80 μL for enzymatic assays of in vitro-translated substrates and 200 μL for enzymatic assays of purified substrates). Then 20 μL of each sample was injected into an Agilent AdvanceBio Peptide Plus column (2.1×150 mm, 2.7 μm) equipped with an Agilent 6545B Q-TOF interfaced with an Agilent 1290 Infinity II LC system. Mobile phase solvents were composed of H2O, 0.1% formic acid (Solvent A), and acetonitrile 0.1% formic acid (Solvent B). The column compartment was maintained at 35° C. during all experiments. The column was equilibrated with 5 column volumes of starting mobile phase (95% A and 5% B) between injections. The gradient of all LC runs was as follows: 0-2 min: 95% A 5% B, 2-3 min: 70% A 30% B, 3-18 min: 20% A 80% B, 18-20 min: 5% A 95% B. The samples were run to waste for the first 3 min before applying to the mass spectrometer. Mass range was set from 100 to 1700 m/z (except for 412MroA1 W7G: 100-3000 m/z). MS parameters were as follows: gas, 320° C. at 8 L/min: nebulizer, 35 psig: nozzle voltage, 1000 V: sheath gas, 350° C. at 11 L/min: capillary, 3500 V: fragmentor, 125 V: skimmer, 65 V: MS scan rate (10) spectra/s): MS-MS scan rate (5 spectra/s); and isolation width (MS/MS), 1.3 m z. […]

These results are taken from US20260132172A1, “IN VITRO BIOSYNTHESIS OF DIVERSE PYRIDINE-BASED MACROCYCLIC PEPTIDES” (The Brd. of Trustees of the Univ. of Illinois, priority 2022, published 2026).

Consider SGIYHNSWLI [Number 20], for which the “Relative MroD conversion” value in experiment [1] is on record as “+++”. In experiment [2], this substance showed a Dha formation of 2 Dha.

Regarding SGAVRFNGSWLI [Number 36], the “Relative MroD conversion” value in experiment [1] is “+”. In experiment [2], the Dha formation came to 2 Dha.

As for SGKLGFSWLI [Number 10], the “Relative MroD conversion” value in experiment [1] is listed as “+”. This substance also displayed a Dha formation in experiment [2] of 2 Dha.

Regarding SGERGMGKSWLI [Number 34], the “Relative MroD conversion” value in experiment [1] was “+++”. The substance also came in with a Dha formation in experiment [2] of 2 Dha.

As for SGNERGSWLI [Number 9], in experiment [1], the “Relative MroD conversion” value is given as “+++”. In experiment [2], this substance showed a Dha formation of 2 Dha.

For SGDGWRSWLI [Number 18], the “Relative MroD conversion” value in experiment [1] is “+++”. The Dha formation in experiment [2] was 2 Dha.

For the substance SGAGLNRSWLI [Number 17], the “Relative MroD conversion” value in experiment [1] is “+++”. This substance also registered a Dha formation in experiment [2] of 2 Dha.

As to SGHAAHSWLI [Number 7], the “Relative MroD conversion” value in experiment [1] is “+++”. For the same substance, in experiment [2], the Dha formation is 2 Dha.

As for SGHDNQARSWLI [Number 49], the “Relative MroD conversion” value in experiment [1] was “+++”. The same substance returned a Dha formation in experiment [2] of 2 Dha.

Regarding SGREFARSWLI [Number 35-N7R], in experiment [1], the “Relative MroD conversion” value was “+++”. The same substance displayed a Dha formation in experiment [2] of 2 Dha.

With SGGRENSWLI [Number 11], the “Relative MroD conversion” value in experiment [1] is recorded as “++”. Besides, the Dha formation in experiment [2] turned out to be 2 Dha.

As to SGGWRVAHSWLI [Number 45], the “Relative MroD conversion” value in experiment [1] was “+”. In experiment [2], the Dha formation is on record as 2 Dha.

In the case of SGRGYALSWLI [Number 25], the “Relative MroD conversion” value in experiment [1] was “++”. This substance also showed a Dha formation in experiment [2] of 2 Dha.

Take SGNMHPGKSWLI [Number 40]: the “Relative MroD conversion” value in experiment [1] was “++”. In experiment [2], the Dha formation is listed as 2 Dha.

In the case of SGIKNDASWLI [Number 23], the “Relative MroD conversion” value in experiment [1] was “+++”. The substance also gave a Dha formation in experiment [2] of 2 Dha.

For “MroA2-SIG: MroA2 variant (MRRRGSMDNVVTEAAEFADLDIVDLDLAVDEELAALSVGGLGNTEVGAGGFFGRSWLI)”, the “dehydration by MroBC (site and extent)” value in experiment [2] was “went to completion”.

For SGKAPGRSWLI [Number 16], in experiment [1], the “Relative MroD conversion” value is “+++”. This substance also yielded a Dha formation in experiment [2] of 2 Dha.

Consider SGRYHSWLI [Number 12], for which the “Relative MroD conversion” value in experiment [1] was “+++”. For the same substance, in experiment [2], the Dha formation came to 2 Dha.

For the substance SGKGKQASWLI [Number 19], the Dha formation in experiment [2] was 2 Dha.

As for SGQGRNRSWLI [Number 24-V7R], the “Relative MroD conversion” value in experiment [1] is “+++”. The Dha formation in experiment [2] came to 2 Dha.

Take SGVKFSWLI [Number 3]: the “Relative MroD conversion” value in experiment [1] is recorded as “+”. The Dha formation in experiment [2] was 2 Dha.

In the case of SGNAWIKSWLI [Number 32], the “Relative MroD conversion” value in experiment [1] was “+++”. For the same substance, the Dha formation in experiment [2] is 2 Dha.

SGDDRDGGSWLI [Number 27]: the “Relative MroD conversion” value in experiment [1] was “+”. Besides, the Dha formation result in experiment [2] is listed as “Mix of 1, 2”.

For the substance SGEMHQHSWLI [Number 41], the “Relative MroD conversion” value in experiment [1] is “+”. The Dha formation result in experiment [2] is on record as “Mix of 1, 2”.

Regarding “S7G/W8G: MroA2 variant (MRRRGSMDNVVTEAAEFADLDIVDLDLAVDEELAALSVGGLGNTEVGASGFFGRGGLI)”, in experiment [2], the “dehydration by MroBC (site and extent)” value was “completely dehydrated at Ser1”.

Consider “S7G/110G: MroA2 variant (MRRRGSMDNVVTEAAEFADLDIVDLDLAVDEELAALSVGGLGNTEVGASGFFGRGWLG)”, for which the “dehydration by MroBC (site and extent)” value in experiment [2] is on record as “completely dehydrated at Ser1”.

On to “MroA2-S7G: MroA2 variant (MRRRGSMDNVVTEAAEFADLDIVDLDLAVDEELAALSVGGLGNTEVGASGFFGRGWLI)”, for which the “dehydration by MroBC (site and extent)” value in experiment [2] is recorded as “went to completion”.

For the substance “MroA2-S1G/W8G: MroA2 variant (MRRRGSMDNVVTEAAEFADLDIVDLDLAVDEELAALSVGGLGNTEVGAGGFFGRSGLI)”, the “dehydration by MroBC (site and extent)” value in experiment [2] is “inefficiently dehydrated at Ser7”.

For SGDAMRWASWLI [Number 53], in experiment [2], the Dha formation was found to be 2 Dha.
